Measurements reported in patent US10933077B2, “TLR4 inhibitors for the treatment of human infectious and inflammatory disorders” (UNIVERSITY OF PITTSBURGH—OF THE COMMONWEALTH SYSTEM OF …, priority 2010, dated 2021).

Biological target: T1, TLR4 (Mus musculus, UniProt Q9JHF9+Q9QUK6)
T1 construct: Swiss Webster (CFW) and NFkB-luciferase reporter mice were obtained from The Jackson Laboratory; tissue The Jackson Laboratory; host or cells: whole live Swiss Webster (CFW) mice
T1 sequence (Q9QUK6 26-835): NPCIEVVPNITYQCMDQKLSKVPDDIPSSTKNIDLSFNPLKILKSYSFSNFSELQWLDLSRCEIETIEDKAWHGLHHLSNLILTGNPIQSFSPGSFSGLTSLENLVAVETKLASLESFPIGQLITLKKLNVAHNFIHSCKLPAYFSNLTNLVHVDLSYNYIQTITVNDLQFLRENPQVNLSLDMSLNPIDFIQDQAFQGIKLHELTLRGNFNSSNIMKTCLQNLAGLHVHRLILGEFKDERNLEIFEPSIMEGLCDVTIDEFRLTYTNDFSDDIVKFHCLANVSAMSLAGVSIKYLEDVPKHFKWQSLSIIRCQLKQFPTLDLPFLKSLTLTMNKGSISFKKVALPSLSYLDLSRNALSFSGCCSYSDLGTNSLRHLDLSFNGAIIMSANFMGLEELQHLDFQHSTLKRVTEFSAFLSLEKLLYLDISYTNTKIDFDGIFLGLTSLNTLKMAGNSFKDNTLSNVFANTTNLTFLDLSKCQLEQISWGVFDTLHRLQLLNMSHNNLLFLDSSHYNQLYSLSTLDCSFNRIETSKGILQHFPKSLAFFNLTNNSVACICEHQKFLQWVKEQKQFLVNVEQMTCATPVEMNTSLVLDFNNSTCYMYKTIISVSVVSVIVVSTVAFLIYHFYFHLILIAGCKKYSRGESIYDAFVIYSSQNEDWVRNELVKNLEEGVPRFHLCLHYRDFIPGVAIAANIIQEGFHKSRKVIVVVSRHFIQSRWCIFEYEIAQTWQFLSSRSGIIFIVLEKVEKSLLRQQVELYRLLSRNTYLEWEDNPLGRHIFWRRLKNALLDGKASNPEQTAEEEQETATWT
T1 sequence (Q9JHF9 19-160): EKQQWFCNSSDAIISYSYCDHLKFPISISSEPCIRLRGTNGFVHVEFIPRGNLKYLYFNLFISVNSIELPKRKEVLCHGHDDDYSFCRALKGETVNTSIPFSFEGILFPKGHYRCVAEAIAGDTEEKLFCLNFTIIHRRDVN
Test: CFW endotoxemia assay (observation of behavior and phenotype after LPS)
Format: in vivo
Details: CFW mice, 20 nanomoles compound i.p. 30 minutes prior to LPS 2 mg/kg, 6 hours; for Observation (Compound “Negatives”): listed as “Negatives”; for Observation (Compound “Hits”): listed as “Hits”
Description: Compound preparation and delivery. All 65 identified compounds were received in solid form and stored at 4° C. until use. Stock solutions of each compound were made by dissolving the appropriate amount of each compound in dimethyl sulfoxide (DMSO) to yield a concentration of 10 mM. Immediately prior to injection into experimental animals, the compounds were diluted to an experimental concentration of 100 uM in phosphate-buffered saline (PBS). Total concentration of DMSO in the final diluted drug was 1%. Compounds were closely examined to insure that no precipitate formed prior to injection and were stored on ice until injection. All compounds were given via intraperitoneal (i.p.) injection in a total volume of 200 ul using a 1 cc syringe and 27 gauge needle. In all experiments listed below, the compounds were delivered to the experimental mice 30 minutes prior to injection with lipopolysaccharide (LPS) to induce endotoxemia. Control animals not receiving compound received 1% DMSO dissolved in PBS. Following drug injection, the mice were observed closely in their cages for signs of immediate toxicity or adverse reaction to the drug, including but not limited to piloerection, tachypnea, bleeding, abnormal or aggressive behavior, signs of altered mental status, and level of activity.
Induction of endotoxemia. All mice were housed and cared for at the Rangos Research Center, Children's Hospital of Pittsburgh (Pittsburgh, Pa.). All experiments were approved by the Children's Hospital of Pittsburgh Animal Care Committee and by the Institutional Review Board of the University of Pittsburgh. Swiss Webster (CFW) and NFkB-luciferase reporter mice were obtained from The Jackson Laboratory. Throughout the course of all experiments, mice were housed 4 per cage with access to food, water, and standard bedding. Endotoxemia was induced in all experiments by i.p. injection of LPS (Escherichia coli 0111:B4 purified by gel filtration chromatography, >99% pure, Sigma-Aldrich) at a dose of 2 mg/kg for 6 hours. At the end of each experiment, all animals were euthanized by CO2 hypoxia and cervical dislocation.
CFW endotoxemia assay. In order to effectively screen the entire compound list, the remaining compounds (7-60) were screened in a model of endotoxemia using CFW mice. Three separate experiments were performed: First, Compound 7 along with a repeat of compound 4 (n=3 mice per compound, mice age 5 weeks) were tested. Controls were saline injection alone (n=1), LPS 2 mg/kg 6 hrs (n=2). Second, compounds 3, 4, 6, 8-32 were tested (n=1 mouse each, 3 week old mice). Controls were saline injection alone (n=1), LPS 2 mg/kg 6 hrs (n=2), LPS 10 mg/kg 6 hrs (n=2), Bay 11 pretreatment 20 mg/kg for 30 minutes prior to LPS 2 mg/kg 6 hrs. Third, compounds 8, 16, 33-60 were tested (n=1 mouse each, 3 week old mice). Controls were saline injection alone (n=1), LPS 2 mg/kg 6 hrs (n=2), Bay 11 pretreatment 20 mg/kg for 30 minutes prior to LPS 2 mg/kg 6 hrs. Following 6 hours of endotoxemia, mice from the second and third experiments were observed within their cages and videotaped to document behavior and phenotypic differences to assess for an inhibitory effect of compound pretreatment on the effects of LPS. Mice were identified by a number previously placed using permanent marker on their tails. The degree of piloerection, tachypnea, location in the cage (center of cage versus corners), degree of activity, and behavior relative to other animals was observed and documented via video for each mouse.
Less activity, tachypnea, and piloerection are considered symptomatic of endotoxemia, so a decrease in these is consistent with TLR inhibition by the administered compound. Note that compounds listed as negatives may still be T4Ics at other concentrations or conditions.

CC(=O)N[C@H]1[C@H](O[C@H]2[C@H](O)[C@@H](NC(C)=O)C(O)O[C@@H]2CO)O[C@H](CO)[C@@H](O[C@@H]2O[C@H](CO)[C@@H](O)[C@H](O)[C@H]2NC(C)=O)[C@@H]1O (stereo partly drawn) [Compound 1, 2-(acetylamino)-4-O-{2-(acetylamino)-4-O-[2-(acetylamino)-2-deoxy-beta-D-glucopyranosyl]-2-deoxy-beta-D-glucopyranosyl}-2-deoxy-D-glucopyranose]
Observation (Compound “Negatives”): More tachypnea, rigors

O=P(O)(O)OCC1OC(OP(=O)(O)O)C(O)[C@H](O)[C@@H]1O (stereo partly drawn) [Compound 8, cyclohexanamine compound with 1,6-di-O-phosphono-beta-D-glycero-hexopyranose (4:1) hydrate]
Observation (Compound “Hits”): More mobile, less piloerection

CCCCO[C@@H]1O[C@H](CO)[C@@H](OC)[C@H](OC)[C@H]1NC(C)=O [Compound 14, butyl 2-(acetylamino)-2-deoxy-3,4-di-O-methyl-beta-D-glucopyranoside]
Observation (Compound “Negatives”): Refused to move from corner, very tachpneic

CC(=O)N[C@H]1[C@H](OC[C@H]2O[C@@H]3OC(C)(C)O[C@@H]3[C@H]3OC(C)(C)O[C@H]32)O[C@H](CO)[C@@H](O)[C@@H]1O [Compound 21, N-((2R,3R,4R,5S,6R)-4,5-dihydroxy-6-(hydroxymethyl)-2-(((3aR,5R,5aS,8aS,8bR)-2,2,7,7-tetramethyltetrahydro-3aH-bis[1,3]dioxolo[4,5-b:4′,5′-d]pyran-5-yl)methoxy)tetrahydro-2H-pyran-3-yl) acetamide]
Observation (Compound “Hits”): More active, crawled over other mice, less piloerection

COC(=O)C1(OC)CC(O)C(NC(C)=O)C(C(O)C(O)CO)O1 [Compound 25, dimethyl 5-(acetylamino)-3,5-dideoxy-D-erythro-non-2-ulopyranosidonate]
Observation (Compound “Negatives”): More piloerection, less mobile than other in the cage

CC(=O)NC1C(OC(C)C(=O)O)[C@H](O)C(CO)O[C@H]1O (stereo partly drawn) [Compound 30, 2-((2R,5S)-3-acetamido-2,5-dihydroxy-6-(hydroxymethyl)tetrahydro-2H-pyran-4-yloxy)propanoic acid]
Observation (Compound “Hits”): Less tachypnea, more mobile

CC(=O)N[C@@H]1[C@@H](O)[C@@H](O)[C@@H](CO)O[C@@H]1O [Compound 31, 2-(acetylamino)-2-deoxy-alpha-D-lyxo-hexopyranose]
Observation (Compound “Negatives”): More tachypneic, more piloerection

CC(=O)N[C@@H]1C[C@H](O)[C@@H](CO)O[C@H]1O[C@H]1[C@H](O)[C@@H](O)[C@H](O)O[C@@H]1C(=O)[O-].[Na+] [Compound 32, sodium (2S,3S,4R,5R,6R)-3-((2S,3R,5S,6R)-3-acetamido-5-hydroxy-6-(hydroxymethyl)tetrahydro-2H-pyran-2-yloxy)-4,5,6-trihydroxytetrahydro-2H-pyran-2-carboxylate]
Observation (Compound “Negatives”): More tachypneic, more piloerection

CCCCCCO[C@@H]1O[C@H](COC(C)=O)[C@@H](OC(C)=O)[C@H](OC(C)=O)[C@H]1NC(C)=O [Compound 36, hexyl 3,4,6-tri-O-acetyl-2-(acetylamino)-2-deoxy-beta-D-glucopyranoside]
Observation (Compound “Hits”): More active, crawled over other mice, less piloerection

CC(=O)N[C@H]1[C@H](OC[C@H]2O[C@@H]3OC4(CCCCC4)O[C@@H]3[C@H]3OC4(CCCCC4)O[C@H]32)O[C@H](CO)[C@@H](O)[C@@H]1O [Compound 37, N-[(2R,3R,4R,5S,6R)-2-[(1′S,2′R,6′R,8′R,9′S)-dispiro[cyclohexane-1,4′-[3,5,7,10,12]pentaoxatricyclo[7.3.0.0^{2,6}]dodecane-11′,1″-cyclohexane]-8′-ylmethoxy]-4,5-dihydroxy-6-(hydroxymethyl)oxan-3-yl]acetamide]
Observation (Compound “Negatives”): More tachypneic, less active

CC(=O)N[C@H]1C(O)O[C@H](CO)[C@@H](O)[C@@H]1O[C@H](C)C(=O)N[C@@H](C)C(=O)N[C@H](CCC(=O)O)C(N)=O (stereo partly drawn) [Compound 40, (4R)-4-((2S)-2-((2R)-2-((3R,4R,5S,6R)-3-acetamido-2,5-dihydroxy-6-(hydroxymethyl)tetrahydro-2H-pyran-4-yloxy)propanamido)propanamido)-5-amino-5-oxopentanoic acid]
Observation (Compound “Negatives”): Less active, huddled in corner

CC(=O)N[C@H]1[C@@H](OP(=O)([O-])OP(=O)([O-])OC[C@H]2O[C@@H](n3ccc(=O)[nH]c3=O)[C@H](O)[C@@H]2O)O[C@H](CO)[C@@H](O)[C@@H]1O.[Na+].[Na+] [Compound 41, Uridine 5′-diphospho-N-acetylglucosamine sodium salt]
Observation (Compound “Negatives”): Less active, huddled in corner

CC(=O)N[C@H]1[C@H](O[C@H]2[C@H](O)[C@@H](O)[C@H](O[C@H]3[C@H](O)[C@@H](CO)OC(O)[C@@H]3NC(C)=O)O[C@@H]2C(=O)O)O[C@H](CO)[C@@H](O)[C@H]1O[C@H]1O[C@H](C(=O)O)[C@@H](O)[C@H](O)[C@H]1O (stereo partly drawn) [Compound 42, 2-(acetylamino)-3-O-{4-O-[2-(acetylamino)-2-deoxy-3-O-alpha-D-xylo-hexopyranuronosyl-beta-D-ribo-hexopyranosyl]-beta-D-xylo-hexopyranuronosyl}-2-deoxy-D-glucopyranose]
Observation (Compound “Hits”): Less tachypnea, more mobile

CC(=O)CC1OC(OC2C(NC(C)=O)C(O)OC(CO)C2OS(=O)(=O)O)C(O)C(O)C1O [Compound 43, 2-(acetylamino)-2-deoxy-3-O-(6,8-dideoxy-beta-L-glycero-octopyranosyl-7-ulose)-4-O-sulfo-L-erythro-hexopyranose]
Observation (Compound “Hits”): More active, crawled over other mice, less piloerection

CC(=O)NC1C(O)OC(CO)C(OC2OC(C)C(O)C(O)C2O)C1OC1OC(CO)C(O)C(O)C1O (stereo not shown) [Compound 45, 2-(acetylamino)-2-deoxy-4-O-(6-deoxyhexopyranosyl)-3-O-hexopyranosylhexopyranose]
Observation (Compound “Hits”): More active, crawled over other mice, less piloerection

C=CCO[C@@H]1O[C@H](COC(C)=O)[C@H](OC(C)=O)[C@H](OC(C)=O)[C@H]1NC(C)=O [Compound 47, allyl 3,4,6-tri-O-acetyl-2-(acetylamino)-2-deoxy-beta-D-lyxo-hexopyranoside]
Observation (Compound “Hits”): More active, crawled over other mice, less piloerection
